Patent publication US12667572B2, “Tricyclic compounds useful in the treatment of cancer, autoimmune and inflammatory disorders” (SCHRÖDINGER, INC., priority 2021, dated 2026)

Molecular target: T1, full-length MALT1 protein His-MALT1(1-824) (Homo sapiens, UniProt Q9UDY8)
T1 construct: full-length MALT1 protein His-MALT1(1-824); His (N); made in house; host or cells: baculovirus-infected insect cells
T1 sequence (Q9UDY8 1-824): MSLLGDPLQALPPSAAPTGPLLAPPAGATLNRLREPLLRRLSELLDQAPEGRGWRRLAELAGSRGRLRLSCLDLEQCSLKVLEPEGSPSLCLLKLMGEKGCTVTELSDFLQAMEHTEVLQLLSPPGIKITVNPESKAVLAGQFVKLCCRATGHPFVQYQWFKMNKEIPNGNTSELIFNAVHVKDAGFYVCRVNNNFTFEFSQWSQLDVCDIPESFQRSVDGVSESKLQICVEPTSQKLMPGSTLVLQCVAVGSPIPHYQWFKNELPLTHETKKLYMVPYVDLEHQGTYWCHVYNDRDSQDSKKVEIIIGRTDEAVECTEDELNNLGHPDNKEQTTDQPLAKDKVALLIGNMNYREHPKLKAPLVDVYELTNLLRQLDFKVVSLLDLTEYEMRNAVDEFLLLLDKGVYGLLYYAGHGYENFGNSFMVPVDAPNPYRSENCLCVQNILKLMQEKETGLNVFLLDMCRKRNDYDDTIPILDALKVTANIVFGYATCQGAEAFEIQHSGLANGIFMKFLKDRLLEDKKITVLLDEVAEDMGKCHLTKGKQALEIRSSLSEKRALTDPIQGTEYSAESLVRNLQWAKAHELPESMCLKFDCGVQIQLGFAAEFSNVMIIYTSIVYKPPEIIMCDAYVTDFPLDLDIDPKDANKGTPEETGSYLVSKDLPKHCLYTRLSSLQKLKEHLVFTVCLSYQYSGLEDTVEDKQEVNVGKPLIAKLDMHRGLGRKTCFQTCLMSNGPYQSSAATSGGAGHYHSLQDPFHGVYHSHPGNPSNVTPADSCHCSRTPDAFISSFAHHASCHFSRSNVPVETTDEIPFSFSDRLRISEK
Assay: MALT1 protease assay, Assay 2 (1 nM MALT1, Ac-LRSR-AMC substrate)
Format: biochemical
Settings: 1 nM MALT1, 50 μM Ac-LRSR-AMC, 2 h pre-incubation, 8 hr incubation at RT
In short: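 Full-length His-MALT1(1-824) from baculovirus-infected insect cells, pre-incubated with compound 2 h at RT (0.1% DMSO). Then 50 μM Ac-LRSR-AMC added. Buffer was Tris pH 7.5 with 600 mM sodium citrate, DTT, EDTA and BSA. Fluorescence (ex 355/em 460 nm) was read after 8 h at RT and normalized to high/low controls. IC50 from non-linear regression.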

| Compound | IC50 [nM] |
| --- | --- |
| CC1(C)C[C@@H](C(=O)Nc2cnc(OC(F)F)c(C#N)c2)c2cnn3cc(C(F)F)nc3c21 (single isomer, unassigned) [Example 198, N-(5-cyano-6-(difluoromethoxy)pyridin-3-yl)-2-(difluoromethyl)-9,9-dimethyl-8,9-dihydro-7H-cyclopenta[d]imidazo[1,2-b]pyridazine-7-carboxamide] | ≥ 1000 |
| CNC(=O)c1ncc(NC(=O)C2CC(C)(C)c3c2cnc2cc(Cl)nn32)cc1C(F)(F)F (single isomer, unassigned) [Example 155, 2-chloro-8,8-dimethyl-N-(6-(methylcarbamoyl)-5-(trifluoromethyl)pyridin-3-yl)-7,8-dihydro-6H-cyclopenta[e]pyrazolo[1,5-a]pyrimidine-6-carboxamide] | 10 to 100 |
| CC1(C)C[C@@H](C(=O)Nc2cnc(OC(F)F)c(C#N)c2)c2cnc3cc(C(F)F)nn3c21 (single isomer, unassigned) [Example 125, N-(5-cyano-6-(difluoromethoxy)pyridin-3-yl)-2-(difluoromethyl)-8,8-dimethyl-7,8-dihydro-6H-cyclopenta[e]pyrazolo[1,5-a]pyrimidine-6-carboxamide] | ≥ 1000 |
| COc1cnc(C(F)(F)F)cc1NC(=O)C1CC(C)(C)c2c1cnc1cc(F)nn21 (single isomer, unassigned) [Example 92, 2-fluoro-N-(5-methoxy-2-(trifluoromethyl)pyridin-4-yl)-8,8-dimethyl-7,8-dihydro-6H-cyclopenta[e]pyrazolo[1,5-a]pyrimidine-6-carboxamide] | 100 to 1000 |
| CC1(C)CC(C(=O)Nc2cc(C(F)F)c(-c3cc[nH]n3)c(=O)[nH]2)c2cnc3cc(Cl)nn3c21 (stereo not shown) [Example 43, 2-chloro-N-(4-(difluoromethyl)-6-oxo-5˜(1H-pyrazol-3-yl)-1,6-dihydropyridin-2-yl)-8,8-dimethyl-7,8-dihydro-6H-cyclopenta[e]pyrazolo[1,5a]pyrimidine-6-carboxamide] | 10 to 100 |
| CC1(C)CC(C(=O)Nc2cnc(-n3ncnn3)c(Cl)c2)c2cnc3cc(Cl)nn3c21 (stereo not shown) [Example 120, 2-chloro-N-(5-chloro-6-(2H-tetrazol-2-yl)pyridin-3-yl)-8,8-dimethyl-7,8-dihydro-6H-cyclopenta[e]pyrazolo[1,5-a]pyrimidine-6-carboxamide] | 10 to 100 |
| O=C(Nc1cnc(-n2nccn2)c(Cl)c1)C1CC2(COC2)c2c1cnc1cc(Cl)nn21 (stereo not shown) [Example 165, 2-chloro-N-(5-chloro-6-(2H-1,2,3-triazol-2-yl)pyridin-3-yl)-6,7-dihydrospiro[cyclopenta[e]pyrazolo[1,5-a]pyrimidine-8,3′-oxetane]-6-carboxamide] | ≥ 1000 |
| C[C@]1(C(F)(F)F)C[C@H](C(=O)Nc2cnc(-n3nccn3)c(Cl)c2)c2cnc3cc(F)nn3c21 (single isomer, unassigned) [Example 187] | 10 to 100 |
| CC1(C)O[C@H](C(=O)Nc2cnc(-n3nccn3)c(Cl)c2)c2cnc3cc(Cl)nn3c21 (single isomer, unassigned) [Example 71, 2-chloro-N-(5-chloro-6-(2H-1,2,3-triazol-2-yl)pyridin-3-yl)-8,8-dimethyl-6,8-dihydrofuro[3,4-e]pyrazolo[1,5-a]pyrimidine-6-carboxamide] | 100 to 1000 |

Now from value to molecule:

| IC50 [nM] | Compound |
| --- | --- |
| 100 to 1000 | Cc1c(F)nn2c3c(cnc12)C(C(=O)Nc1cnc(-n2nccn2)c(Cl)c1)CC3(C)C (single isomer, unassigned) [Example 114, N-(5-chloro-6-(2H-1,2,3-triazol-2-yl)pyridin-3-yl)-2-fluoro-3,8,8-trimethyl-7,8-dihydro-6H-cyclopenta[e]pyrazolo[1,5-a]pyrimidine-6-carboxamide] |
| ≥ 1000 | CC1(C)CC(C(=O)Nc2cnc(-n3ncc(C#N)n3)c(Cl)c2)c2cnc3cc(Cl)nn3c21 (stereo not shown) [Example 137, 2-chloro-N-(5-chloro-6-(4-cyano-2H-1,2,3-triazol-2-yl)pyridin-3-yl)-8,8-dimethyl-7,8-dihydro-6H-cyclopenta[e]pyrazolo[1,5-a]pyrimidine-6-carboxamide] |
| ≥ 1000 | CC1(C)C[C@@H](C(=O)Nc2cnc(-n3nccn3)c(C(F)(F)F)c2)c2cnc3cc(Cl)nn3c21 (single isomer, unassigned) [Example 45, N-(6-(2H-1,2,3-triazol-2-yl)-5˜(trifluoromethyl)pyridin-3-yl)-2-chloro-8,8-dimethyl-7,8-dihydro-6H-cyclopenta[e]pyrazolo[1,5-a]pyrimidine-6-carboxamide] |
| 100 to 1000 | C[C@@]1(C(F)(F)F)C[C@@H](C(=O)Nc2cnc(-n3nccn3)c(C(F)(F)F)c2)c2cnc3cc(Cl)nn3c21 (single isomer, unassigned) [Example 53, N-(6-(2H-1,2,3-triazol-2-yl)-5˜(trifluoromethyl)pyridin-3-yl)-2-chloro-8-methyl-8-(trifluoromethyl)-7,8-dihydro-6H-cyclopenta[e]pyrazolo[1,5-a]pyrimidine-6-carboxamide] |
| ≥ 1000 | CC1(C)CC(C(=O)Nc2cnc(N=S(C)(C)=O)c(Cl)c2)c2cnc3cc(F)nn3c21 (single isomer, unassigned) [Example 131, N-(5-chloro-6-((dimethyl(oxo)-λ^6-sulfaneylidene)amino)pyridin-3-yl)-2-fluoro-8,8-dimethyl-7,8-dihydro-6H-cyclopenta[e]pyrazolo[1,5-a]pyrimidine-6-carboxamide] |
| ≥ 1000 | CNC(=O)c1ncc(NC(=O)[C@@H]2CC(C)(C)c3c2cnc2cc(Cl)nn32)cc1C(F)(F)F (single isomer, unassigned) [Example 154, 2-chloro-8,8-dimethyl-N-(6-(methylcarbamoyl)-5-(trifluoromethyl)pyridin-3-yl)-7,8-dihydro-6H-cyclopenta[e]pyrazolo[1,5-a]pyrimidine-6-carboxamide] |
| 100 to 1000 | Cc1cn2ncc3c(c2n1)C(C)(C)C[C@H]3C(=O)Nc1cnc(-n2nccn2)c(Cl)c1 (single isomer, unassigned) [Example 188, N-(5-chloro-6-(2H-1,2,3-triazol-2-yl)pyridin-3-yl)-2,9,9-trimethyl-8,9-dihydro-7H-cyclopenta[d]imidazo[1,2-b]pyridazine-7-carboxamide] |
| ≥ 1000 | CC(C)(O)c1ncc(NC(=O)[C@H]2CC3(CCC3)c3c2cnc2cc(F)nn32)cc1Cl (single isomer, unassigned) [Example 105, N-(5-chloro-6-(2-hydroxypropan-2-yl)pyridin-3-yl)-2′-fluoro-6′,7′-dihydrospiro[cyclobutane-1,8′-cyclopenta[e]pyrazolo[1,5-a]pyrimidine]-6′-carboxamide] |
| ≥ 1000 | O=C(Nc1cnc(-n2nccn2)c(C(F)(F)F)c1)C1CC2(CC2)c2c1cnc1cc(Cl)nn21 (single isomer, unassigned) [Example 148, N-(6-(2H-1,2,3-triazol-2-yl)-5-(trifluoromethyl)pyridin-3-yl)-2-chloro-6,7-dihydrospiro[cyclopenta[e]pyrazolo[1,5-a]pyrimidine-8,1′-cyclopropane]-6-carboxamide] |
| 100 to 1000 | Cc1nnn(-c2ncc(NC(=O)[C@H]3CC(C)(C)c4c3cnc3cc(Cl)nn43)cc2Cl)n1 (single isomer, unassigned) [Example 140, 2-chloro-N-(5-chloro-6-(5-methyl-2H-tetrazol-2-yl)pyridin-3-yl)-8,8-dimethyl-7,8-dihydro-6H-cyclopenta[e]pyrazolo[1,5-a]pyrimidine-6-carboxamide] |
| 10 to 100 | N#Cc1cc(NC(=O)[C@H]2CC3(CCOCC3)c3c2cnc2cc(F)nn32)cnc1OC(F)F (single isomer, unassigned) [Example 146, N-(5-cyano-6-(difluoromethoxy)pyridin-3-yl)-2-fluoro-2′,3′,5′,6,6′,7-hexahydrospiro[cyclopenta[e]pyrazolo[1,5-a]pyrimidine-8,4′-pyran]-6-carboxamide] |
| 10 to 100 | CC1(C)C[C@@H](C(=O)Nc2cnc(-n3nccn3)c(C#N)c2)c2cnc3cc(Cl)nn3c21 (single isomer, unassigned) [Example 106, 2-chloro-N-(5-cyano-6-(2H-1,2,3-triazol-2-yl)pyridin-3-yl)-8,8-dimethyl-7,8-dihydro-6H-cyclopenta[e]pyrazolo[1,5-a]pyrimidine-6-carboxamide] |
| ≥ 1000 | CC1(C)CC(C(=O)Nc2cnc(OC(F)F)c(Cl)c2)c2cnc3cc(F)nn3c21 (single isomer, unassigned) [Example 76, N-(5-chloro-6-(difluoromethoxy)pyridin-3-yl)-2-fluoro-8,8-dimethyl-7,8-dihydro-6H-cyclopenta[e]pyrazolo[1,5-a]pyrimidine-6-carboxamide] |
